Source: PubChem BioAssay AID226 (DTP/NCI, 2004)
Values joined by “and” are separate entries in the source; they are usually repeats but may differ in a detail not shown here. Equal entries are not always repeated. Inconclusive results and toxic doses are left out.

Test system: B6C3F1 mice, intracerebral ependymoblastoma, median survival T/C
Experiment: NCI In Vivo Anticancer Drug Screen. Data for tumor model Ependymoblastoma (intracerebral) in B6C3F1 mice
Details: endpoint: median survival time, higher = longer survival
Procedure: The antitumor activity of compounds was measured in mice bearing transplantable tumors. Survival or tumor size were measured and the results are expressed as the measurement made in the treated group (T) divided by the measurement made in the vehicle treated control group (C). The tumor model used in this assay is Ependymoblastoma (intracerebral) in B6C3F1 mice

[1] = dose: 8.0 mg/kg/injection, schedule: Q01DX005 (ip), vehicle: saline
[2] = dose: 16.0 mg/kg/injection, schedule: Q01DX005 (ip), vehicle: saline
[3] = dose: 32.0 mg/kg/injection, schedule: Q01DX005 (ip), vehicle: saline
[4] = dose: 64.0 mg/kg/injection, schedule: Q01DX005 (ip), vehicle: saline
[5] = dose: 100.0 mg/kg/injection, schedule: Q01DX005 (ip), vehicle: Klucel (hydroxypropylcellulose) (HPC)
[6] = dose: 200.0 mg/kg/injection, schedule: Q01DX005 (ip), vehicle: Klucel (hydroxypropylcellulose) (HPC)
[7] = dose: 25.0 mg/kg/injection, schedule: Q01DX005 (ip), vehicle: Klucel (hydroxypropylcellulose) (HPC)
[8] = dose: 50.0 mg/kg/injection, schedule: Q01DX005 (ip), vehicle: Klucel (hydroxypropylcellulose) (HPC)
[9] = dose: 64.0 mg/kg/injection, schedule: Q01DX005 (ip), vehicle: saline with Tween-80
[10] = dose: 16.0 mg/kg/injection, schedule: Q01DX005 (ip), vehicle: saline with Tween-80
[11] = dose: 32.0 mg/kg/injection, schedule: Q01DX005 (ip), vehicle: Klucel (hydroxypropylcellulose) (HPC)
[12] = dose: 32.0 mg/kg/injection, schedule: Q01DX005 (ip), vehicle: saline with Tween-80
[13] = dose: 64.0 mg/kg/injection, schedule: Q01DX005 (ip), vehicle: Klucel (hydroxypropylcellulose) (HPC)
[14] = dose: 128.0 mg/kg/injection, schedule: Q01DX005 (ip), vehicle: saline with Tween-80
[15] = dose: 128.0 mg/kg/injection, schedule: Q01DX005 (ip), vehicle: saline

## C[CH2][Ge]1([CH2]C)[CH2]CC2(CCN(CCCN(C)C)C2)C[CH2]1
[1]
  T/C: 94 % of control and 103 % of control
[2]
  T/C: 96 % of control and 104 % of control and 107 % of control

## CN=NNc1nc[nH]c1C(N)=O
[1]
  T/C: 99 % of control
[2]
  T/C: 106 % of control
[3]
  T/C: 110 % of control
[4]
  T/C: 123 % of control

## OC(CBr)C(O)C(O)C(O)CBr (stereo unspecified)
dose: 2.0 mg/kg/injection, schedule: Q01DX005 (ip), vehicle: Klucel (hydroxypropylcellulose) (HPC)
  T/C: 102 % of control
dose: 4.0 mg/kg/injection, schedule: Q01DX005 (ip), vehicle: Klucel (hydroxypropylcellulose) (HPC)
  T/C: 106 % of control
dose: 50.0 mg/kg/injection, schedule: Q01DX005 (ip), vehicle: saline
  T/C: 122 % of control
[5]
  T/C: 97 % of control
[6]
  T/C: 109 % of control
dose: 200.0 mg/kg/injection, schedule: Q01DX005 (ip), vehicle: saline
  T/C: 118 % of control and 195 % of control and 233 % of control

## NC(=O)c1csc(C2OC(CO)C(O)C2O)n1 (stereo unspecified)
dose: 9.38 mg/kg/injection, schedule: Q01DX009 (ip), vehicle: saline
  T/C: 96 % of control
dose: 18.8 mg/kg/injection, schedule: Q01DX009 (ip), vehicle: saline
  T/C: 107 % of control
dose: 37.5 mg/kg/injection, schedule: Q01DX005 (ip), vehicle: saline
  T/C: 93 % of control and 110 % of control
dose: 37.5 mg/kg/injection, schedule: Q01DX009 (ip), vehicle: saline
  T/C: 99 % of control and 110 % of control
dose: 75.0 mg/kg/injection, schedule: Q01DX005 (ip), vehicle: saline
  T/C: 101 % of control and 107 % of control
dose: 75.0 mg/kg/injection, schedule: Q01DX009 (ip), vehicle: saline
  T/C: 112 % of control and 121 % of control
dose: 150.0 mg/kg/injection, schedule: Q01DX005 (ip), vehicle: saline
  T/C: 113 % of control and 116 % of control
dose: 150.0 mg/kg/injection, schedule: Q01DX009 (ip), vehicle: saline
  T/C: 110 % of control and 119 % of control
dose: 300.0 mg/kg/injection, schedule: Q01DX005 (ip), vehicle: saline
  T/C: 108 % of control and 114 % of control
dose: 300.0 mg/kg/injection, schedule: Q01DX009 (ip), vehicle: saline
  T/C: 114 % of control
dose: 600.0 mg/kg/injection, schedule: Q01DX005 (ip), vehicle: saline
  T/C: 101 % of control and 114 % of control
dose: 600.0 mg/kg/injection, schedule: Q01DX009 (ip), vehicle: saline
  T/C: 123 % of control

## NC(=O)c1ncn(C2OC(CO)C(O)C2O)c1O (stereo unspecified)
[7]
  T/C: 92 % of control
[8]
  T/C: 101 % of control and 115 % of control
[5]
  T/C: 96 % of control and 101 % of control
[6]
  T/C: 105 % of control and 115 % of control
dose: 400.0 mg/kg/injection, schedule: Q01DX005 (ip), vehicle: Klucel (hydroxypropylcellulose) (HPC)
  T/C: 111 % of control

## CCCCN(C)N=Nc1c(C(N)=O)n[nH]c1C
[9]
  T/C: 166 % of control

## COc1cccc2c1C(=O)c1c(O)c3c(c(O)c1C2=O)C[C@@](O)(C(C)=O)C[C@@H]3OC1CC(N)C(O)C(C)O1 (stereo partly specified)
dose: 0.12 mg/kg/injection, schedule: Q01DX005 (ip), vehicle: water
  T/C: 105 % of control
dose: 0.25 mg/kg/injection, schedule: Q01DX005 (ip), vehicle: water
  T/C: 102 % of control
dose: 0.5 mg/kg/injection, schedule: Q01DX005 (ip), vehicle: water
  T/C: 93 % of control and 105 % of control
dose: 1.0 mg/kg/injection, schedule: Q01DX005 (ip), vehicle: water
  T/C: 92 % of control and 93 % of control
dose: 2.0 mg/kg/injection, schedule: Q01DX005 (ip), vehicle: water
  T/C: 104 % of control

## O=P1(NCCCl)OCCC(OO)N1CCCl (stereo unspecified)
dose: 40.0 mg/kg/injection, schedule: Q01DX001 (ip), vehicle: Klucel (hydroxypropylcellulose) (HPC)
  T/C: 106 % of control and 119 % of control
dose: 80.0 mg/kg/injection, schedule: Q01DX001 (ip), vehicle: Klucel (hydroxypropylcellulose) (HPC)
  T/C: 115 % of control
dose: 240.0 mg/kg/injection, schedule: Q01DX001 (ip), vehicle: Klucel (hydroxypropylcellulose) (HPC)
  T/C: 150 % of control

## CN(Cc1cnc2nc(N)nc(N)c2n1)c1c(Cl)cc(C(=O)NC(CCC(=O)O)C(=O)O)cc1Cl (stereo unspecified)
[10]
  T/C: 95 % of control and 114 % of control
[2]
  T/C: 100 % of control
[11]
  T/C: 100 % of control
[12]
  T/C: 97 % of control and 107 % of control
[3]
  T/C: 92 % of control and 103 % of control
[13]
  T/C: 104 % of control
[9]
  T/C: 100 % of control and 107 % of control
[4]
  T/C: 101 % of control and 104 % of control
dose: 128.0 mg/kg/injection, schedule: Q01DX005 (ip), vehicle: Klucel (hydroxypropylcellulose) (HPC)
  T/C: 89 % of control
[14]
  T/C: 98 % of control and 100 % of control
[15]
  T/C: 100 % of control and 106 % of control
dose: 256.0 mg/kg/injection, schedule: Q01DX005 (ip), vehicle: Klucel (hydroxypropylcellulose) (HPC)
  T/C: 96 % of control

## C/C(=C\c1ccccc1)[N+](=O)[O-]
dose: 3.12 mg/kg/injection, schedule: Q01DX005 (ip), vehicle: Klucel (hydroxypropylcellulose) (HPC)
  T/C: 96 % of control
dose: 6.25 mg/kg/injection, schedule: Q01DX005 (ip), vehicle: Klucel (hydroxypropylcellulose) (HPC)
  T/C: 100 % of control
dose: 12.5 mg/kg/injection, schedule: Q01DX005 (ip), vehicle: Klucel (hydroxypropylcellulose) (HPC)
  T/C: 92 % of control
[7]
  T/C: 92 % of control
[8]
  T/C: 91 % of control
[5]
  T/C: 91 % of control

## COc1ccc(C[C@H](N)C(=O)NC2C(CO)OC(n3cnc4c(N(C)C)ncnc43)C2O)cc1 (stereo partly specified)
[1]
  T/C: 101 % of control
[2]
  T/C: 101 % of control
[3]
  T/C: 103 % of control
[4]
  T/C: 94 % of control
[15]
  T/C: 102 % of control

## COc1ccc2c(c1)CCC(c1ccccc1)=C2c1ccc(OCCN2CCCC2)cc1
dose: 8.0 mg/kg/injection, schedule: Q01DX005 (ip), vehicle: Klucel (hydroxypropylcellulose) (HPC)
  T/C: 106 % of control
dose: 12.0 mg/kg/injection, schedule: Q01DX005 (ip), vehicle: saline with Tween-80
  T/C: 108 % of control
dose: 16.0 mg/kg/injection, schedule: Q01DX005 (ip), vehicle: Klucel (hydroxypropylcellulose) (HPC)
  T/C: 106 % of control
dose: 24.0 mg/kg/injection, schedule: Q01DX005 (ip), vehicle: saline with Tween-80
  T/C: 110 % of control
[11]
  T/C: 110 % of control
dose: 48.0 mg/kg/injection, schedule: Q01DX005 (ip), vehicle: saline with Tween-80
  T/C: 104 % of control
[13]
  T/C: 101 % of control
dose: 96.0 mg/kg/injection, schedule: Q01DX005 (ip), vehicle: saline with Tween-80
  T/C: 107 % of control

## S=P(N1CC1)(N1CC1)N1CC1.[Cl-].[Cl-].[NH2-].[NH2-].[Pt+4]
dose: 3.0 mg/kg/injection, schedule: Q01DX005 (ip), vehicle: dextrose
  T/C: 122 % of control
dose: 6.0 mg/kg/injection, schedule: Q01DX005 (ip), vehicle: dextrose
  T/C: 155 % of control

## NS(=O)(=O)c1cc2c(cc1Cl)NC=NS2(=O)=O
dose: 37.5 mg/kg/injection, schedule: Q01DX005 (ip), vehicle: Klucel (hydroxypropylcellulose) (HPC)
  T/C: 109 % of control
dose: 75.0 mg/kg/injection, schedule: Q01DX005 (ip), vehicle: Klucel (hydroxypropylcellulose) (HPC)
  T/C: 96 % of control
dose: 150.0 mg/kg/injection, schedule: Q01DX005 (ip), vehicle: Klucel (hydroxypropylcellulose) (HPC)
  T/C: 90 % of control
dose: 300.0 mg/kg/injection, schedule: Q01DX005 (ip), vehicle: Klucel (hydroxypropylcellulose) (HPC)
  T/C: 107 % of control
dose: 600.0 mg/kg/injection, schedule: Q01DX005 (ip), vehicle: Klucel (hydroxypropylcellulose) (HPC)
  T/C: 102 % of control

## COC1C(O)C(C)OC(OC2C(Oc3cccc4c(O)c5c(=O)oc6ccc(C)c7c(=O)oc(c34)c5c67)OC(C)C(O)C2O)C1O (stereo unspecified)
dose: 1.0 mg/kg/injection, schedule: Q01DX005 (ip), vehicle: saline
  T/C: 105 % of control
dose: 2.0 mg/kg/injection, schedule: Q01DX005 (ip), vehicle: saline with Tween-80
  T/C: 94 % of control and 105 % of control
dose: 2.0 mg/kg/injection, schedule: Q01DX005 (ip), vehicle: saline
  T/C: 98 % of control
dose: 4.0 mg/kg/injection, schedule: Q01DX005 (ip), vehicle: saline with Tween-80
  T/C: 99 % of control and 102 % of control
dose: 4.0 mg/kg/injection, schedule: Q01DX005 (ip), vehicle: saline
  T/C: 96 % of control
dose: 8.0 mg/kg/injection, schedule: Q01DX005 (ip), vehicle: saline with Tween-80
  T/C: 102 % of control and 104 % of control
[1]
  T/C: 101 % of control
[10]
  T/C: 100 % of control and 105 % of control
[2]
  T/C: 93 % of control
[12]
  T/C: 106 % of control and 89 % of control
[3]
  T/C: 98 % of control
[9]
  T/C: 102 % of control and 108 % of control
[4]
  T/C: 103 % of control
[14]
  T/C: 106 % of control and 111 % of control
[15]
  T/C: 98 % of control
